Measurements taken from article PMC11413854, “Reversible Control of Native GluN2B-Containing NMDA Receptors with Visible Light” (ACS Chemical Neuroscience, 2024).
Values joined by “and” are separate entries in the source; they are usually repeats but may differ in a detail not shown here. Equal entries are not always repeated. Where two headings read alike, the source gives them in different places.

Molecular target: T1, GluK2 kainate receptors (Rattus norvegicus, UniProt P42260, I567V/Q621R/Y571C)
T1 construct: expressed in transfected cells; host or cells: Xenopus laevis oocytes (mRNA injection)
T1 sequence (P42260 32-908 I567V/Y571C/Q621R): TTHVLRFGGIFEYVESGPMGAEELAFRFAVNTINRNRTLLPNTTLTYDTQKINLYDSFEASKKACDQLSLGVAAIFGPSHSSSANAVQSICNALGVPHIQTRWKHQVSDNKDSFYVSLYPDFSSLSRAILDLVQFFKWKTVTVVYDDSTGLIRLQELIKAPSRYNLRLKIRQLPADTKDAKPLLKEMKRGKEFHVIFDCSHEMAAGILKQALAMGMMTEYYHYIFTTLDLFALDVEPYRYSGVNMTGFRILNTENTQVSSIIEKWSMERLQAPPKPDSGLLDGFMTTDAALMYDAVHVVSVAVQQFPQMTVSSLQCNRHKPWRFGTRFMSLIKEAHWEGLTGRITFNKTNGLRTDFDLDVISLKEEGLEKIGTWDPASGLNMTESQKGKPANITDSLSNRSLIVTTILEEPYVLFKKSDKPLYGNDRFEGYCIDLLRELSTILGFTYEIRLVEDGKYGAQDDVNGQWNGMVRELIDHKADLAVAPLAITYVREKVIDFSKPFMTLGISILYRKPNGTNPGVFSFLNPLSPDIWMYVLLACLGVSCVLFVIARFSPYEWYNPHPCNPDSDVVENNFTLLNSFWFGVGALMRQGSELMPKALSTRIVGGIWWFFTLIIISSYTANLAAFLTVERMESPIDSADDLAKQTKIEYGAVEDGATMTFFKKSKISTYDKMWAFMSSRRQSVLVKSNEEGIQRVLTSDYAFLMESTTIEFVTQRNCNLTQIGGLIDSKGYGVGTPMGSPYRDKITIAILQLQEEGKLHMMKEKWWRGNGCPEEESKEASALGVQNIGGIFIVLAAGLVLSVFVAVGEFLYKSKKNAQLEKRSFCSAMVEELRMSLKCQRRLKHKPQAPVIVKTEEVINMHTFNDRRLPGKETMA
Assay: TEVC on Xenopus oocytes, GluK2 kainate receptors
Format: cell-based
Parameters: Inhibition, individual values: scale not given here
Details: for Inhibition, individual values: GluK2, single cells
From the text: We used cDNA coding for rat GluN1–1a (named GluN1 herein) (GenBank: U08261.1), rat GluN2A (GenBank: D13211.1), mouse GluN2B (GenBank: D10651.2), rat GluA1 flop (GenBank: M36418.2), and rat Myc-GluA2(Q)-flip (GenBank: AF164344.1) cloned into pcDNA3-based expression plasmids. GluK2 (GenBank: Z11548.1) corresponds to the fully RNA-edited version.[80] The GluN2B-ΔNTD construct is from ref[45] and GluN2B–N615K is from ref[81]. Single mutants GluN2B-Q110G and GluN1-L135H were from ref[19]. The GluA2 cDNA contains a Myc tag ([…]) fused between the signal peptide and the N-terminus sequences, and the GluA2 subunit is […] for its Q/R/N site (GluA2(Q)) to allow permeation of homomeric GluA2 receptors.[2] cDNAs coding for rat GluN2C (GenBank: M91563.1) and GluN2D subunits (GenBank: L31611.1) were in prK5 plasmids.
The expression of recombinant GluA1, GluA2(Q), and GluK2 receptors was obtained by oocyte injection of 50 nL of mRNAs (at 1 μg/μL). mRNAs were generated using the T7 (GluA1 and GluA2) and T3 (GluK2) mMessage mMachine transcription kits (Invitrogen) after cDNA linearization with the SacII restriction enzyme. The injected oocytes were stored in the same conditions as for NMDARs and used 72–96 h postinjection.
TEVC recordings were performed 1–3 days following injection. TEVC recordings were performed using an Oocyte Clamp amplifier OC-725 (Warner Instruments) and computer-controlled via a 1440A Digidata (Molecular Devices). Currents were sampled at 100 Hz and low-pass-filtered at 20 Hz using an 8-pole Bessel filter (900 Series, Frequency Devices Inc.). Data were collected with Clampfit 10.3. During the recording, the cells were continuously perfused with external recording Ringer solution at pH 7.3 (in mM: 100 NaCl, 0.3 BaCl2, 5 HEPES, and 2.5 KCl, pH adjustment to 7.3 by the addition of NaOH). The NMDA currents were induced by simultaneous application of L-glutamate and glycine (agonist solution) at saturating concentration (100 μM each), and DTPA (10 μM) to prevent receptor inhibition by ambient zinc (∼20 nM).[83] A control solution (100 μM glycine and 10 μM DTPA in Ringer pH 7.3) was used for washout of drug and test solutions. AMPA and kainate receptor currents were induced in the same conditions as NMDA currents (100 μM glutamate and glycine + 10 μM DTPA). Oocytes expressing GluK2 kainate receptors were treated with concanavalin A ([…], equivalent to 1.1 mg/mL) during 10 min before recording to decrease receptor desensitization. Unless notified, recordings were performed at a holding potential of −60 mV. All experiments were performed at room temperature.
Oocytes expressing GluK2 receptors were treated with concanavalin A ([…]) before recording to decrease
receptor desensitization.

inhibition at 10 µM (10 µM OptoNAM-3 365 nm PSS, construct GluK2, read-out: Inhibition (%)): -1.6%
inhibition at 10 µM (10 µM OptoNAM-3 dark PSS (trans), construct GluK2, read-out: Inhibition (%)): 3.1%
inhibition of GluK2 currents (10 µM, dark PSS, concanavalin A treated): no effect
inhibition at 10 µM (10 µM, dark PSS, concanavalin A treated, read-out: inhibition of GluK2 currents): 3.1 ± 3.4%
SMILES: c1ccc(/N=N/c2ccc(CCNc3ccncc3)cc2)cc1 [OptoNAM-3, (E)-N-(4-(Phenyldiazenyl)phenethyl)pyridin-4-amine]
Inhibition, individual values (10 µM OptoNAM-3 dark PSS (trans) as headed, second block): -0.01064 and 0.02708 and -0.08821 and 0.02098 and -0.02821
Inhibition, individual values (10 µM OptoNAM-3 dark PSS (trans), first block): 0.1443 and -0.06723 and 0.004392 and 0.02857 and 0.0441
